According to ChEMBL document CHEMBL4251546, “Discovery and hit-to-lead evaluation of piperazine amides as selective, state-dependent NaV1.7 inhibitors” (Medchemcomm, 2017):
Converted amounts (≈) assume the structure as drawn.

Experiments:
[1] = Thermodynamic solubility of the compound in PBS at pH 7.4; type: physicochemical; conditions: read-out: Therm_solubility
Mus musculus = test: Unbound Cmax in mouse at 100 mg/kg, po; type: ADME, organism-based; conditions: in vivo
[2] = Plasma concentration in C57Bl/6 mouse histamine dichloride-induced pruritus model at 300 mg/kg, po; type: ADME, organism-based; conditions: in vivo
MDR1 (P-gp) = test: Apparent permeability across MDCK cells transfected with MDR1; type: ADME, cell-based, Canis lupus familiaris; conditions: dog
[3] = Cmax in mouse at 100 mg/kg, po; type: ADME, organism-based; design: dose 100 mg/kg, route oral; conditions: in vivo

| solubility thermodynamic [1] [µM] | SMILES | other results |
| --- | --- | --- |
| 44 (≈ 23 µg/mL) | N#Cc1cc(OC(F)(F)F)cc(C(=O)N2CCN([C@@H](C(=O)NCc3ccccc3)c3ccccc3)CC2)c1 | – |
| 220 (≈ 102 µg/mL) | CN(Cc1ccccc1)C(=O)[C@@H](c1ccccc1)N1CCN(C(=O)c2cc(F)cc(F)c2)CC1 | – |
| 74 (≈ 35.1 µg/mL) | N#Cc1ccc([C@H](C(=O)NCc2ccccc2)N2CCN(C(=O)c3cc(F)cc(F)c3)CC2)cc1 | – |
| 346 (≈ 160 µg/mL) | O=C(NCC(F)(F)C1CC1)[C@@H](c1ccccc1)N1CCN(C(=O)c2cc(F)cc(F)c2)CC1 | – |
| 96 (≈ 44.7 µg/mL) | O=C(NCc1ccccc1)[C@@H](c1ccccc1)N1CCN(C(=O)c2cc(F)ccc2Cl)CC1 | fCmax (Mus musculus): 0.16 µM; concentration [2]: 22 µM; Papp (MDR1 (P-gp)): 36 ×10⁻⁶ cm/s; Cmax [3]: 4.3 µM |
| 454 (≈ 212 µg/mL) | O=C(NCc1ccccc1)[C@@H](c1ccccc1)N1CCN(C(=O)c2cc(F)cnc2Cl)CC1 | – |
| 225 (≈ 117 µg/mL) | O=C(NCc1ccc(C(F)(F)F)nc1)[C@@H](c1ccccc1)N1CCN(C(=O)c2cc(F)cc(F)c2)CC1 | – |
| 405 (≈ 191 µg/mL) | N#Cc1cc(F)cc(C(=O)N2CCN([C@@H](C(=O)NCC(F)(F)C3CC3)c3ccccc3)CC2)c1 | fCmax (Mus musculus): 1.66 µM; Cmax [3]: 12.8 µM |
| 472 (≈ 195 µg/mL) | O=C(NCC1CC1)[C@@H](c1ccccc1)N1CCN(C(=O)c2cc(F)cc(F)c2)CC1 | – |
| 30 (≈ 15.1 µg/mL) | COc1cc([C@H](C(=O)NCc2ccccc2)N2CCN(C(=O)c3cc(F)cc(F)c3)CC2)ccc1C#N | – |
| 154 (≈ 77.8 µg/mL) | N#Cc1ccc([C@H](C(=O)NCC(F)(F)C2CC2)N2CCN(C(=O)c3cc(F)ccc3Cl)CC2)cc1 | fCmax (Mus musculus): 3.28 µM; Cmax [3]: 29.8 µM |
| 15 (≈ 8.39 µg/mL) | N#Cc1ccc([C@H](C(=O)Nc2ccc(OCC(F)(F)F)nc2)N2CCN(C(=O)c3cc(F)cc(F)c3)CC2)cc1 | – |
| 248 (≈ 113 µg/mL) | N#Cc1cc(F)cc(C(=O)N2CCN([C@@H](C(=O)NCc3ccccc3)c3ccccc3)CC2)c1 | – |
| 19 (≈ 10.2 µg/mL) | O=C(Nc1ccc(OCC(F)(F)F)nc1)[C@@H](c1ccccc1)N1CCN(C(=O)c2cc(F)cc(F)c2)CC1 | – |
| 137 (≈ 61.6 µg/mL) | O=C(NCc1ccccc1)[C@@H](c1ccccc1)N1CCN(C(=O)c2cc(F)cc(F)c2)CC1 | – |
| 49 (≈ 27 µg/mL) | O=C(Nc1ccc(OCC(F)(F)F)nc1)[C@@H](c1ccccc1)N1CCN(C(=O)c2cc(F)cnc2Cl)CC1 | – |

| SMILES | solubility thermodynamic [1] [µM] | other results |
| --- | --- | --- |
| O=C(NCc1ccccc1)[C@@H](c1ccccc1)N1CC2CCC(C1)N2C(=O)c1cc(F)ccc1Cl | 35 (≈ 17.2 µg/mL) | – |
| O=C(NCc1ccccc1)[C@@H](c1ccccc1)N1CC2CC(C1)N2C(=O)c1cc(F)ccc1Cl | 83 (≈ 39.7 µg/mL) | – |
| N#Cc1ccc([C@H](C(=O)NCC2CC2)N2CC3CCC(C2)N3C(=O)c2cc(F)ccc2F)cc1 | 326 (≈ 151 µg/mL) | – |
| N#Cc1ccc([C@H](C(=O)NCC2CC2)N2CC3CCC(C2)N3C(=O)c2cc(F)cc(F)c2)cc1 | 322 (≈ 150 µg/mL) | – |
| O=C(NCc1ccccc1)[C@@H](c1ccccc1)N1CCN(Cc2ccccc2)CC1 | 19 (≈ 7.59 µg/mL) | Papp (MDR1 (P-gp)): 24 ×10⁻⁶ cm/s |
